Read-outs that look alike come from different tables or passages of the source.
Legend:
[1] = tested on: common cutworm (third-instar larvae); experiment: Test 1 (Effect on Common Cutworm); assay type: in vivo; settings: Spodoptera litura
Protocol: (§1) Compounds (a) through (g) described below were tested as comparative compounds in the same manner as the compounds of the present invention. All the tests were doubly carried out. Namely, each result was expressed by an average value of two data.
The emulsifiable concentrate of the test compound, prepared according to the method described in Formulation Example 1, was diluted with water to a specified concentration. Sweet potato leaves were sufficiently immersed in the dilution. The sweet potato leaves were dried and placed in a plastic cup having a diameter of 10 cm, and 10 third-instar larvae of common cutworm were set free in each cup. 48 hours after, the numbers of killed and living larvae were counted and the mortality was calculated.

[2] = tested on: two-spotted spider mite (adults); experiment: Test 4 (Effect on Two-Spotted Spider Mite); assay type: in vivo; settings: Tetranychus urticae
Protocol: as §1
A kidney bean leaf disc (20 mm in diameter) perforated with a cork borer was placed on water-impregnated absorbent cotton, and thereon 20 adults of two-spotted spider mite were set free, and the resulting set was allowed to stand around the clock. The same dilution of the emulsifiable concentrate of a test compound having a concentration of 200 ppm as used in Test 1 and Test 2, was applied by an applicator having a diameter of 20 cm and a height of 60 cm in an amount of 3 ml. 24 hours after, the number of killed adults was counted.

[3] = tested on: green rice leafhopper (female adults); experiment: Test 2 (Effect on Green Rice Leafhopper); assay type: in vivo; settings: Nephotettix cincticeps
Protocol: as §1
Four or five seedlings of paddy rice with three leaves were bundled, and thereon the same dilution of the emulsifiable concentrate as used in Test 1 was sprayed in an amount of 3 ml. The bundle was dried and covered with a metal net cylinder, and 10 female adults of green rice leafhopper were set free in the cylinder. 48 hours after, the number of killed adults was counted.

[4] = tested on: German cockroach (female adults); experiment: Test 3 (Effect on German Cockroach); assay type: in vivo, Blatella germanica (German cockroach); settings: Blattella germanica
Protocol: as §1
One ml of an acetone solution of a test compound of a specified concentration was poured in a high Petri dish having a diameter of 9 cm and a height of 9 cm. The Petri dish was allowed to stand, and thereby the acetone was evaporated. The upper part of the inner wall of the Petri dish was treated with butter to prevent the adults of German cockroach from escaping from the Petri dish. 10 female adults of German cockroach were set free in each Petri dish. 48 hours after, the number of killed adults was counted.

yearling carps = experiment: Test 5 (Fish Toxicity); assay type: in vivo, carp
Protocol: as §1
A water tank having a width of 60 cm, a length of 30 cm and a height of 40 cm was filled with water, and 10 yearling carps having a body length of about 5 cm were set free in the tank and adapted to the environment in the tank. An acetone solution of a test compound was applied into water so as to become a concentration of 1 or 0.1 ppm in water by adding said acetone solution at a rate of one part by volume per 100 parts by volume of water. 48 hours after, the number of killed and living carps was counted and the effect of a test compound on carps was examined.

[5] = 1 mg/m^2, 48 hours, female adults, read-out: Mortality (%)
[6] = 5 mg/m^2, 48 hours, female adults, read-out: Mortality (%)
[7] = 20 ppm, 48 hours, third-instar larvae, read-out: Mortality (%)
[8] = 100 ppm, 48 hours, third-instar larvae, read-out: Mortality (%)
[9] = 20 ppm, 48 hours, female adults, read-out: Mortality (%)
[10] = 100 ppm, 48 hours, female adults, read-out: Mortality (%)
[11] = 200 ppm, 24 hours, adults, read-out: Mortality (%)

| SMILES | mortality at 1 mg/m2 [4, 5] [%] | mortality at 5 mg/m2 [4, 6] [%] | mortality at 20 ppm [1, 7] [%] | mortality at 100 ppm [1, 8] [%] | mortality at 20 ppm [3, 9] [%] | mortality at 100 ppm [3, 10] [%] | mortality at 200 ppm [2, 11] [%] | further results |
| --- | --- | --- | --- | --- | --- | --- | --- | --- |
| COP(=O)(OC)OC=C(Cl)Cl [(a), 0,0-dimethyl-0-(2,2-dichlorovinyl)phosphate, reference compound] | – | – | – | – | – | – | – | mortality at 20 ppm ([1]; 48 h): 0%; mortality at 100 ppm ([1]; 48 h): 60%; mortality at 200 ppm ([2]; 24 h): 33% |
| CCOP(=S)(OCC)Oc1ccc(=O)n(-c2ccccc2)n1 [(b), 0,0-diethyl-0-(3-oxo-2-phenyl-2H-pyridazin-6-yl)-phosphorothioate, reference compound] | 0 | 10 | – | – | – | – | – | mortality at 20 ppm ([3]; 48 h): 90%; mortality at 100 ppm ([3]; 48 h): 100% |
| CCOP(=S)(OCC)Oc1cc(C)nc(C(C)C)n1 [(c), Diazinon, reference compound] | – | – | – | – | – | – | – | mortality at 20 ppm ([3]; 48 h): 10%; mortality at 100 ppm ([3]; 48 h): 80%; mortality at 1 mg/m2 ([4]; 48 h): 0%; mortality at 5 mg/m2 ([4]; 48 h): 80% |
| OC(c1ccc(Cl)cc1)(c1ccc(Cl)cc1)C(Cl)(Cl)Cl [(e), Kelthane, reference compound] | – | – | – | – | – | – | – | mortality at 200 ppm ([2]; 24 h): 100% |
| Cc1ccc(C(C)(C)CCCc2cccc(Oc3ccccc3)c2)cc1 [Compound 1, 1-(3-phenoxyphenyl)-4-(4-methylphenyl)-4-methylpentane] | 80 | 100 | 100 | 100 | – | – | – | Mortality(%) 48 Hours After (yearling carps; 0.1 ppm in water): 0%; Mortality(%) 48 Hours After (yearling carps; 1 ppm in water): 0% |
| CC(C)(CCCc1cccc(Oc2ccccc2)c1)c1ccc2c(c1)OCO2 [Compound 4, 1-(3-phenoxyphenyl)-4-(3,4-methylenedioxyphenyl)-4-methylpentane] | 40 | 100 | 100 | 100 | – | – | – | Mortality(%) 48 Hours After (yearling carps; 0.1 ppm in water): 0%; Mortality(%) 48 Hours After (yearling carps; 1 ppm in water): 0% |
| COc1ccc(C(C)(C)CCCc2ccc(F)c(Oc3ccccc3)c2)cc1 [Compound 6, 1-(3-phenoxy-4-fluorophenyl)-4-(4-methoxyphenyl)-4-methylpentane] | 100 | 100 | 100 | 100 | 100 | 100 | – | Mortality(%) 48 Hours After (yearling carps; 0.1 ppm in water): 0%; Mortality(%) 48 Hours After (yearling carps; 1 ppm in water): 0% |
| CC(C)Oc1ccc(C(C)(C)CCCc2cccc(Oc3ccccc3)c2)cc1 [Compound 9, 1-(3-phenoxyphenyl)-4-(4-isopropoxyphenyl)-4-methylpentane] | – | – | 100 | 100 | 100 | 100 | 100 | – |
| CC(C)(CCCc1ccc(F)c(Oc2ccccc2)c1)c1ccc(OC(F)F)cc1 [Compound 10, 1-(3-phenoxy-4-fluorophenyl)-4-(4-difluoromethoxyphenyl)-4-methylpentane] | 100 | 100 | 100 | 100 | 100 | 100 | – | Mortality(%) 48 Hours After (yearling carps; 0.1 ppm in water): 5%; Mortality(%) 48 Hours After (yearling carps; 1 ppm in water): 30% |
| CCOc1ccc(C(C)(C)CCCc2cccc(Oc3ccccc3)n2)cc1 [Compound 19] | – | – | 70 | 100 | – | – | 43 | – |
| CC(C)(CCCc1ccc(F)c(Oc2ccccc2)c1)c1ccc(Cl)cc1 [Compound 20] | 100 | 100 | 100 | 100 | 100 | 100 | 100 | Mortality(%) 48 Hours After (yearling carps; 0.1 ppm in water): 0%; Mortality(%) 48 Hours After (yearling carps; 1 ppm in water): 0% |
| CC(C)(CCCc1ccc(F)c(Oc2ccccc2)c1)c1ccccc1 [Compound 27] | – | – | 100 | 100 | 100 | 100 | – | mortality at 1 mg/m2 ([4]; 48 h): 100%; mortality at 5 mg/m2 ([4]; 48 h): 100% |
| Cc1ccc(C(C)(C)CCCc2ccc(F)c(Oc3ccccc3)c2)cc1 [Compound 29] | 100 | 100 | 100 | 100 | – | – | – | – |
| CCOc1ccc(C2(CCCc3cccc(Oc4ccccc4)c3)CCC2)cc1 [Compound 31, 1-(3-Phenoxyphenyl)-3-[1-(4-ethoxyphenyl)cyclobutyl]propane] | 100 | 100 | – | – | 100 | 100 | – | – |
| CC(C)(CCCc1cccc(Oc2ccccc2)c1)c1ccc(OC(F)(F)CCl)cc1 [Compound 35] | – | – | 100 | 100 | – | – | 85 | mortality at 1 mg/m2 ([4]; 48 h): 70%; mortality at 5 mg/m2 ([4]; 48 h): 100%; Mortality(%) 48 Hours After (yearling carps; 0.1 ppm in water): 0%; Mortality(%) 48 Hours After (yearling carps; 1 ppm in water): 0% |
| CCOc1ccc(C(C)(C)CCCc2cccc(Oc3ccc(F)cc3)n2)cc1 [Compound 40] | – | – | – | – | 60 | 100 | 70 | – |
| CC(C)(CCCc1cccc(Oc2ccccn2)c1)c1ccc(Cl)cc1 [Compound 43] | – | – | – | – | 75 | 100 | 60 | – |
| CC(C)(C)c1ccc(C(C)(C)CCCc2ccc(F)c(Oc3ccccc3)c2)cc1 [Compound 44] | – | – | 40 | 90 | – | – | 85 | – |
| CCc1ccc(C(C)(C)CCCc2ccc(F)c(Oc3ccccc3)c2)cc1 [Compound 52] | 70 | 100 | 100 | 100 | 100 | 100 | 100 | – |
| CC(C)(CCCc1ccc(F)c(Oc2ccc(F)cc2)c1)c1ccc(Cl)cc1 [Compound 53] | 80 | 100 | – | – | 100 | 100 | 100 | – |
| CC(C)(CCC(C#N)c1cccc(Oc2ccccc2)c1)c1ccc(Cl)cc1 (stereo not drawn) [Compound 54, 1-(3-Phenoxyphenyl)-1-cyano-4-(4-chlorophenyl)-4-methylpentane] | – | – | 45 | 90 | 50 | 90 | 100 | – |
| CCOc1ccc(C(C)(C)CCCc2ccc(F)c(Oc3ccc(F)cc3)c2)cc1 [Compound 55] | – | – | 100 | 100 | 100 | 100 | – | mortality at 1 mg/m2 ([4]; 48 h): 100%; mortality at 5 mg/m2 ([4]; 48 h): 100%; Mortality(%) 48 Hours After (yearling carps; 0.1 ppm in water): 0%; Mortality(%) 48 Hours After (yearling carps; 1 ppm in water): 0% |
| CC(C)c1ccc(C(C)(C)CCCc2ccc(F)c(Oc3ccccc3)c2)cc1 [Compound 56] | 40 | 100 | – | – | 100 | 100 | 100 | – |
| CC(C)(CCCc1cccc(Oc2ccccc2)c1)c1ccc(OCCF)cc1 [Compound 60] | – | – | 90 | 100 | 100 | 100 | 90 | – |
| COCc1ccc(C(C)(C)CCCc2cccc(Oc3ccccc3)c2)cc1 [Compound 61] | – | – | – | – | 100 | 100 | 93 | – |
| CCOC(=O)c1ccc(C(C)(C)CCCc2cccc(Oc3ccccc3)c2)cc1 [Compound 64] | – | – | 40 | 90 | – | – | 70 | – |
| CC(C)(CCCc1cccc(Oc2ccccc2)c1)c1ccc(OC(F)(F)C(F)F)cc1 [Compound 65] | 30 | 95 | 100 | 100 | 100 | 100 | – | – |
| CC(C)(CCCc1ccc(F)c(Oc2ccccc2)c1)c1ccc(OC(F)(F)C(F)F)cc1 [Compound 66] | 65 | 100 | 100 | 100 | 100 | 100 | 100 | – |
